The values below come from patent publication US10556865B2, “Synergistic herbicidal composition containing certain pyridine or pyrimidine carboxylic acids and certain cereal and rice herbicides” (Dow AgroSciences, LLC, priority 2007, dated 2020).

Values joined by “and” are separate entries in the source; they are usually repeats but may differ in a detail not shown here. Equal entries are not always repeated.

Holding throughout (assay type): in vivo
The subject of test [1] is Russian thistle (Salsola iberica L; SASKR). In words: Postemergence herbicidal activity of mixtures in cereal crops (greenhouse, visual injury). Particulars: 2.5 g/ha alone. The method, then: (§1) Seeds of the desired test plant species were planted in Sun Gro MetroMix® 306 planting mixture, which typically has a pH of 6.0 to 6.8 and an organic matter content of about 30 percent, in plastic pots with a surface area of 103.2 square centimeters (cm^2). When required to ensure good germination and healthy plants, a fungicide treatment and/or other chemical or physical treatment was applied. The plants were grown for 7-36 days in a greenhouse with an approximate 14 hour photoperiod which was maintained at about 18° C. during the day and 17° C. during the night. Nutrients and water were added on a regular basis and supplemental lighting was provided with overhead metal halide 1000-Watt lamps as necessary. The plants were employed for testing when they reached the second or third true leaf stage.
(§2) Treatments consisted of compound (as listed in Tables 1 through 64) and a second cereal herbicide alone and in combination. Weighed amounts of esters (methyl) or salts (TEA [triethylammonium], K [potassium]) of 4-amino-3-chloro -6-(4-chloro-2-fluoro-3-methoxyphenyl)pyridine-2-carboxylic acid (Compound A) or of 6-amino-5-chloro-2-(4-chloro-2-fluoro-3-methoxyphenyl)pyrimidine-4-carboxylic acid (Compound B), were placed in 25 milliliter (mL) glass vials and dissolved in a volume of 97:3 v/v acetone/DMSO to obtain 4.5 milligrams (mg) active ingredient (ai)/mL stock solutions. […] The concentrated stock solutions were diluted to 1.5 mg ai/mL with the addition of 2 volumes of an aqueous mixture containing acetone, water, isopropyl alcohol, DMSO, Agri-dex crop oil concentrate, and Triton® X-77 surfactant in a 64.7:26.0:6.7:2.0:0.7:0.01 v/v ratio. A dilution solution was prepared by mixing 1 volume of 97:3 v/v acetone/DMSO and 2 volumes of an aqueous mixture containing acetone, water, isopropyl alcohol, DMSO, Agri-dex crop oil concentrate, and Triton® X-77 surfactant in a 64.7:26.0:6.7:2.0:0.7:0.01 v/v ratio. Compound requirements are based upon a 12 mL application volume at a rate of 187 liters per hectare (L/ha). Spray solutions of the second cereal herbicide and experimental compound mixtures were prepared by adding the stock solutions to the appropriate amount of dilution solution to form 12 mL spray solution with active ingredients in two- and three-way combinations. Formulated compounds were applied to the plant material with an overhead Mandel track sprayer equipped with 8002E nozzles calibrated to deliver 187 L/ha over an application area of 0.503 square meters (m^2) at a spray height of 18 inches (43 cm) above average plant canopy. Control plants were sprayed in the same manner with the solvent blank.
(§3) The treated plants and control plants were placed in a greenhouse as described above and watered by sub-irrigation to prevent wash-off of the test compounds. After 20-22 days, the condition of the test plants as compared with that of the control plants was determined visually and scored on a scale of 0 to 100 percent where 0 corresponds to no injury and 100 corresponds to complete kill.
(§4) Colby's equation was used to determine the herbicidal effects expected from the mixtures (Colby, S. R. 1967. Calculation of the synergistic and antagonistic response of herbicide combinations. Weeds 15:20-22.).
(§5) The following equation was used to calculate the expected activity of mixtures containing two active ingredients, A and B: Expected=A+B−(A×B/100)

Test [2] relates to black mustard (Brassica nigra L; BRSNI). The test is described as above. Particulars: 2.5 g/ha alone. The method, then: as §1, §2, §3, §4, §5
Test [3] deals with cut-leaf geranium (Geranium dissectum L; GERDI). The description is as above. The conditions noted are these: 2.5 g/ha alone. The method, then: as §1, §2, §3, §4, §5
The test system of test [4] is kochia (Kochia scoparia L; KCHSC). The description is as above. Particulars: 2.5 g/ha alone. How it is done:
as §1, §2, §3, §4, §5

For test [5], the system named is bird's-eye speedwell (Veronica persica L; VERPE). The test is described as above. Particulars: 2.5 g/ha alone. In outline: (§6)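 Weeds grown in greenhouse (~14 h photoperiod, ~18/17 °C day/night) to second–third true leaf stage, sprayed postemergence with compound and second cereal herbicide alone or combined; solvent-blank controls. Injury scored visually after 20-22 days, 0–100% (complete kill); expected mixture activity = A+B−(A×B/100).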

Test [6] concerns scented mayweed (Matricaria chamomila L; MATCH). Described as above. The conditions noted are these: 2.5 g/ha alone. In outline: as §6
The test system of test [7] is wild pansy (Viola tricolor L; VIOTR). Described as above. Particulars: 2.5 g/ha alone. In outline: as §6
The subject of test [8] is Ischaemum rugosum SALISB. (ISCRU). In words: Postemergence herbicidal mixtures for weed control in direct seeded rice (greenhouse, visual % injury).

Consider `Nc1cc(Cl)nc(C(=O)O)c1Cl` [Aminopyralid], for which the “SASKR Ob” value in test [1] was determined as 18%. For the same compound, the “BRSNI Ob” value in test [2] was found to be 0%. The “GERDI Ob” value in test [3] was 0%. In addition, the “KCHSC Ob” value in test [4] is on record as 0%. The “VERPE Ob” value in test [5] amounted to 0%. Further, the “MATCH Ob” value in test [6] is 10% and 8%. Also, in test [7], the “VIOTR Ob” value was 27%.
For the compound `CCc1cnc(C2=NC(C)(C(C)C)C(=O)N2)c(C(=O)O)c1` (stereo not drawn) [Imazethapyr], the “% Injury ISCRU Ob” value in test [8] (alone 35 g/ha) came out at 20%.
Consider `COCc1cnc(C2=NC(C)(C(C)C)C(=O)N2)c(C(=O)O)c1` (stereo not drawn) [Imazamox], for which the “% Injury ISCRU Ob” value in test [8] (alone 22.4 g/ha) is recorded as 50%.
